Patent publication US20240190880A1 (THE REGENTS OF THE UNIVERSITY OF MICHIGAN, priority 2021, published 2024)

target: T1, ER (Homo sapiens, UniProt P03372); test: ER degradation activity, in-cell western blot analysis in T47D cells; type: cell-based; conditions: 16 hours, Table A does not say which cell line (T47D or MCF7), read-out: Potency (DC50)
T1 construct: host or cells: T47D and MCF7 human breast cancer cells
T1 sequence (P03372 1-595): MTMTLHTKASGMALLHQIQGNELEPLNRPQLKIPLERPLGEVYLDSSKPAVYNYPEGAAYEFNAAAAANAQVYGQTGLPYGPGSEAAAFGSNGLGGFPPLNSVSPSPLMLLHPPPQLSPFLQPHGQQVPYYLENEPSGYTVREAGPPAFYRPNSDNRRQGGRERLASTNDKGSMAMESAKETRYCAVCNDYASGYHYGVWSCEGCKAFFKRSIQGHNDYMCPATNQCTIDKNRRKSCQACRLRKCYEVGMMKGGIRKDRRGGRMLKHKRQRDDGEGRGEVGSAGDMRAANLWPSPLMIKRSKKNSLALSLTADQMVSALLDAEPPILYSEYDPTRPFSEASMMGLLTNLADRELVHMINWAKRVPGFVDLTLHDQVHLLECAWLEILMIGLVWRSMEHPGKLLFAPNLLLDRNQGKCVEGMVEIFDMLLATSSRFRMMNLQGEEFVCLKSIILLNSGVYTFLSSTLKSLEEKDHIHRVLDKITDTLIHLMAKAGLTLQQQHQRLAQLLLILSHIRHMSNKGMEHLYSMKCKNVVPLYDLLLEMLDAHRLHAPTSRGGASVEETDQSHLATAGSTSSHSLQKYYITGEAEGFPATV
How it was run: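 ER protein remaining after 16 h compound exposure is quantified in T47D cells by in-cell western, with a no-primary-antibody background control. Values are percentages of DMSO-treated signal.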

SMILES	DC50
C[C@@H]1Cc2c([nH]c3ccccc23)[C@@H](c2c(F)cc(N3CCC(N4CCC(CN5Cc6cc7c(cc6C5)C(=O)N(C5CCC(=O)NC5=O)C7=O)CC4)C3)cc2F)N1CC(F)F (stereo partly drawn) [E 124, 6-((1-(1-(4-((1R,3R)-2-(2,2-difluoroethyl)-3-methyl-2,3,4,9-tetrahydro-1H-pyrido[3,4-b]indol-1-yl)-3,5-difluorophenyl)pyrrolidin-3-yl)piperidin-4-yl)methyl)-2-(2,6-dioxopiperidin-3-yl)-6,7-dihydropyrrolo[3,4-f]isoindole-1,3(2H,5H)-dione]	> 100 nM
C[C@@H]1Cc2c([nH]c3ccccc23)[C@@H](c2c(F)cc(N3CCCC(CN4CCC(C(=O)N5Cc6cc7c(cc6C5)C(=O)N(C5CCC(=O)NC5=O)C7=O)CC4)C3)cc2F)N1CC(F)F (stereo partly drawn) [E 58, 6-(1-((1-(4-((1R,3R)-2-(2,2-difluoroethyl)-3-methyl-2,3,4,9-tetrahydro-1H-pyrido[3,4-b]indol-1-yl)-3,5-difluorophenyl)piperidin-3-yl)methyl)piperidine-4-carbonyl)-2-(2,6-dioxopiperidin-3-yl)-6,7-dihydropyrrolo[3,4-f]isoindole-1,3(2H,5H)-dione]	10 to 100 nM
C[C@@H]1Cc2c([nH]c3ccccc23)[C@@H](c2c(F)cc(N3CCC(N4CCC(CN5Cc6cc7c(cc6C5)C(=O)N(C5CCC(=O)NC5=O)C7)CC4)CC3)cc2F)N1CC(F)F (stereo partly drawn) [E 86, 3-(6-((1′-(4-((1R,3R)-2-(2,2-difluoroethyl)-3-methyl-2,3,4,9-tetrahydro-1H-pyrido[3,4-b]indol-1-yl)-3,5-difluorophenyl)-[1,4′-bipiperidin]-4-yl)methyl)-1-oxo-3,5,6,7-tetrahydropyrrolo[3,4-f]isoindol-2(1H)-yl)piperidine-2,6-dione]	10 to 100 nM
C[C@@H]1Cc2cc(O)ccc2[C@@H](c2c(F)cc(N3CCC4(CCN(C(=O)CN5Cc6cc7c(cc6C5)C(=O)N(C5CCC(=O)NC5=O)C7)C4)CC3)cc2F)N1CC(C)(F)F (stereo partly shown) [E 138]	10 to 100 nM
O=C1CCC(N2C(=O)c3cc4c(cc3C2=O)CN(C(=O)CN2CCC[C@H](Oc3ccc([C@@H]5c6ccc(O)cc6CC[C@@H]5c5ccc(F)cc5)cc3)C2)C4)C(=O)N1 (mixture of isomers) [E 159, Rac-2-(2,6-dioxopiperidin-3-yl)-6-(2-((S)-3-(4-((1R,2S)-2-(4-fluorophenyl)-6-hydroxy-1,2,3,4-tetrahydronaphthalen-1-yl)phenoxy)piperidin-1-yl)acetyl)-6,7-dihydropyrrolo[3,4-f]isoindole-1,3(2H,5H)-dione]	> 100 nM
O=C1CCC(N2C(=O)c3cc4c(cc3C2=O)CN(C(=O)CN2CCC3(CC2)CCN(c2ccc([C@@H]5c6ccc(O)cc6CC[C@@H]5c5ccc(F)cc5)cc2)C3)C4)C(=O)N1 (mixture of isomers) [E 152, Rac-2-(2,6-dioxopiperidin-3-yl)-6-(2-(2-(4-((1R,2S)-2-(4-fluorophenyl)-6-hydroxy-1,2,3,4-tetrahydronaphthalen-1-yl)phenyl)-2,8-diazaspiro[4.5]decan-8-yl)acetyl)-6,7-dihydropyrrolo[3,4-f]isoindole-1,3(2H,5H)-dione]	> 100 nM
C[C@@H]1Cc2c([nH]c3ccccc23)[C@@H](c2c(F)cc(N3CC4(CC(C(=O)N5CCC(CN6Cc7cc8c(cc7C6)C(=O)N(C6CCC(=O)NC6=O)C8=O)CC5)C4)C3)cc2F)N1CC(F)F (stereo partly drawn) [E 115, 6-((1-(2-(4-((1R,3R)-2-(2,2-difluoroethyl)-3-methyl-2,3,4,9-tetrahydro-1H-pyrido[3,4-b]indol-1-yl)-3,5-difluorophenyl)-2-azaspiro[3.3]heptane-6-carbonyl)piperidin-4-yl)methyl)-2-(2,6-dioxopiperidin-3-yl)-6,7-dihydropyrrolo[3,4-f]isoindole-1,3(2H,5H)-dione]	< 10 nM
C[C@@H]1Cc2c([nH]c3ccccc23)[C@@H](c2c(F)cc(N3CCCC4(CN(C(=O)CN5Cc6cc7c(cc6C5)C(=O)N(C5CCC(=O)NC5=O)C7)C4)C3)cc2F)N1CC(F)F (stereo partly drawn) [E 70, 3-(6-(2-(6-(4-((1R,3R)-2-(2,2-difluoroethyl)-3-methyl-2,3,4,9-tetrahydro-1H-pyrido[3,4-b]indol-1-yl)-3,5-difluorophenyl)-2,6-diazaspiro[3.5]nonan-2-yl)-2-oxoethyl)-1-oxo-3,5,6,7-tetrahydropyrrolo[3,4-f]isoindol-2(1H)-yl)piperidine-2,6-dione]	10 to 100 nM
O=C1CCC(N2C(=O)c3cc4c(cc3C2=O)CN(C2CCN(C(=O)C3CCN(c5ccc([C@@H]6c7ccc(O)cc7CC[C@@H]6c6ccccc6)cc5)CC3)CC2)C4)C(=O)N1 (mixture of isomers) [E 13, Rac-2-(2,6-dioxopiperidin-3-yl)-6-(1-(1-(4-((1R,2S)-6-hydroxy-2-phenyl-1,2,3,4-tetrahydronaphthalen-1-yl)phenyl)piperidine-4-carbonyl)pi570 peridin-4-yl)-6,7-dihydropyrrolo[3,4-f]isoindole-1,3(2H,5H)-dione]	< 10 nM

The remaining lines, values ahead:

DC50	SMILES
10 to 100 nM	C[C@@H]1Cc2c([nH]c3ccccc23)[C@@H](c2ccc(N3CCC(CN4CCC(N5Cc6cc7c(cc6C5)C(=O)N(C5CCC(=O)NC5=O)C7=O)CC4)CC3)cc2)N1CC(F)F (stereo partly drawn) [E 264, 6-(1-((1-(4-((1R,3R)-2-(2,2-difluoroethyl)-3-methyl-2,3,4,9-tetrahydro-1H-pyrido[3,4-b]indol-1-yl)phenyl)piperidin-4-yl)methyl)piperidin-4-yl)-2-(2,6-dioxopiperidin-3-yl)-6,7-dihydropyrrolo[3,4-f]isoindole-1,3(2H,5H)-dione]
10 to 100 nM	O=C1CCC(N2C(=O)c3cc4c(cc3C2=O)CN(CC(=O)N2CCC3(CC2)CCN(c2ccc([C@@H]5c6ccc(O)cc6CCC56CCCC6)cc2)CC3)C4)C(=O)N1 (mixture of isomers) [E 179, Rac-2-(2,6-dioxopiperidin-3-yl)-6-(2-(9-(4-((R)-6′-hydroxy-3′,4′-dihydro-1′H-spiro[cyclopentane-1,2′-naphthalen]-1′-yl)phenyl)-3,9-diazaspiro[5.5]undecan-3-yl)-2-oxoethyl)-6,7-dihydropyrrolo[3,4-f]isoindole-1,3(2H,5H)-dione]
> 100 nM	C[C@@H]1Cc2c([nH]c3ccccc23)[C@@H](c2c(F)cc(N3CCC(CN4CCC(C(=O)N5Cc6cc7c(cc6C5)C(=O)N(C5CCC(=O)NC5=O)C7=O)CC4)CC3)cc2F)N1CC(F)F (stereo partly drawn) [E 238, 6-(1-((1-(4-((1R,3R)-2-(2,2-difluoroethyl)-3-methyl-2,3,4,9-tetrahydro-1H-pyrido[3,4-b]indol-1-yl)-3,5-difluorophenyl)piperidin-4-yl)methyl)piperidine-4-carbonyl)-2-(2,6-dioxopiperidin-3-yl)-6,7-dihydropyrrolo[3,4-f]isoindole-1,3(2H,5H)-dione]
10 to 100 nM	C[C@@H]1Cc2c([nH]c3ccccc23)[C@@H](c2cnc(N3CCC(CN4CCC(N5Cc6cc7c(cc6C5)C(=O)N(C5CCC(=O)NC5=O)C7=O)CC4)CC3)nc2)N1CC(F)(F)F (stereo partly drawn) [E 256, 2-(2,6-dioxopiperidin-3-yl)-6-(1-((1-(5-((1R,3R)-3-methyl-2-(2,2,2-trifluoroethyl)-2,3,4,9-tetrahydro-1H-pyrido[3,4-b]indol-1-yl)pyrimidin-2-yl)piperidin-4-yl)methyl)piperidin-4-yl)-6,7-dihydropyrrolo[3,4-f]isoindole-1,3(2H,5H)-dione]
> 100 nM	O=C1CCC(N2C(=O)c3cc4c(cc3C2=O)CN(CC2CCN(C(=O)C3(F)CCN(c5ccc([C@@H]6c7ccc(O)cc7CC[C@@H]6c6ccccc6)cc5)CC3)CC2)C4)C(=O)N1 (stereo partly drawn) [E 208, 2-(2,6-dioxopiperidin-3-yl)-6-((1-(4-fluoro-1-(4-((1R,2S)-6-hydroxy-2-phenyl-1,2,3,4-tetrahydronaphthalen-1-yl)phenyl)piperidine-4-carbonyl)piperidin-4-yl)methyl)-6,7-dihydropyrrolo[3,4-f]isoindole-1,3(2H,5H)-dione]

same assay, conditions: compounds 16 hours, Table A does not say whether T47D or MCF7, read-out: Potency (DC50)

DC50	SMILES
> 100 nM	CN(c1ccc([C@@H]2c3ccc(O)cc3CC[C@@H]2c2ccccc2)cc1)C1CN(C[C@H]2CC[C@H](C(=O)N3Cc4cc5c(cc4C3)C(=O)N(C3CCC(=O)NC3=O)C5=O)CC2)C1 (stereo partly drawn) [E 398, 2-(2,6-dioxopiperidin-3-yl)-6-((1R,4r)-4-((3-((4-((1R,2S)-6-hydroxy-2-phenyl-1,2,3,4-tetrahydronaphthalen-1-yl)phenyl)(methyl)amino)azetidin-1-yl)methyl)cyclohexane-1-carbonyl)-6,7-dihydropyrrolo[3,4-f]isoindole-1,3(2H,5H)-dione]
10 to 100 nM	C[C@@H]1Cc2c(ccc3[nH]ncc23)[C@@H](c2c(F)cc(C3=CCC(C(=O)N4CCC(N5Cc6cc7c(cc6C5)C(=O)N(C5CCC(=O)NC5=O)C7=O)CC4)CC3)cc2F)N1CC(F)F (mixture of isomers) [E 468, 6-(1-(4′-((6S,8R)-7-(2,2-difluoroethyl)-8-methyl-6,7,8,9-tetrahydro-3H-pyrazolo[4,3-f]isoquinolin-6-yl)-3′,5′-difluoro-2,3,4,5-tetrahydro-[1,1′-biphenyl]-4-carbonyl)piperidin-4-yl)-2-(2,6-dioxopiperidin-3-yl)-6,7-dihydropyrrolo[3,4-f]isoindole-1,3(2H,5H)-dione]
